Test: gradient 5% acetonitrile 3 min, to 50% in 2 min, to 85% in 15 min, held 3 min, 100 µL/min
Details: column: Zorbax Extend-C18 2.1 x 50 mm; eluents: water / acetonitrile, 0.1% formic acid
Outline: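 Mixtures of ~100 pure standards were chromatographed on a Zorbax Extend-C18 column (2.1 × 50 mm, 1.8 μm) at 100 μL/min using water and acetonitrile, each with 0.1% formic acid. Detection used a quadrupole time-of-flight mass spectrometer in positive and negative ionization mode, and data collection spanned 3 months. Retention time was obtained from adduct peaks picked computationally and each checked manually.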

| RP-LC retention time [s] | SMILES |
| --- | --- |
| 819 | CCCCCC(=O)C(=O)c1ccc(O)cc1O |
| 720 | COc1ccccc1C(=O)Nc1nnc(C2CC(=O)N(c3ccccc3)C2)o1 (centres undefined) |
| 922 | CCC1Oc2ccc(S(=O)(=O)N3CCC(C(=O)Nc4ccc(F)cc4C)CC3)cc2NC1=O (centres undefined) |
| 776 | CC(C)(C)c1nnc(NC(=O)C2CCN(C(=O)c3ccc(F)cc3)CC2)s1 |
| 852 | O=C(NCCC1CCN(S(=O)(=O)c2ccc(F)cc2)CC1)NCc1ccc(F)cc1 |
| 760 | COc1cc(=O)n2c(c1C(=O)Nc1ccc(Br)cc1)CCCC2 |
| 751 | Cc1nn(-c2ccccc2)cc1C(=O)N1CCC(CC(=O)NCCc2c[nH]c3ccccc23)CC1 |
| 721 | CSc1ccc(CCNC(=O)c2nc(N3CCOCC3)c3ccccc3n2)cc1 |
| 816 | O=C(Cc1nnc2cc(-c3nc(C4CC4)no3)ccn12)Nc1ccc(Cl)cc1 |
| 823 | Cc1oc(-c2ccc(NC(=O)c3ccsc3)cc2)nc1Cn1cccn1 |
| 774 | O=C(NCc1noc(-c2ccc(F)cc2)n1)C1CCC1 |
| 589 | COc1ccc(-c2nc(N3CCN(C4CCCCC4)CC3)c3ccccc3n2)cc1 |
| 954 | CC(C)N1C(=O)c2cccnc2Sc2cc(NC(=O)Cc3ccc(Cl)cc3)ccc21 |
| 756 | O=S(=O)(Cc1ccc(Cl)cc1)c1nc2ccccc2nc1N1CCOCC1 |
| 794 | COC(=O)c1cc(S(=O)(=O)N2CCCC2C(=O)Nc2ccc3c(c2)OCCO3)cn1C (centres undefined) |
| 750 | Clc1ccc(Cn2c(CN3CCCC3)nc3ccccc32)cc1 |
| 671 | Cc1ccc2c(C(=O)NCc3ccccc3C)cc(NC(=O)C(C)C)cc2n1 |
| 652 | CCCn1c(C)cnc1C1CN(S(=O)(=O)Cc2ccccc2)C1 |
| 830 | CC(=O)N1c2ccc(S(=O)(=O)N3CCCCC3)cc2CC1C(=O)NC1CCCC1 (centres undefined) |
| 666 | COc1cccc(C(=O)Nc2c(-c3ccccc3)nc3ccccn23)c1OC |
| 779 | Cc1noc2ncn(CC(=O)NCc3cccc(Br)c3)c(=O)c12 |
| 1050 | CCCCN1C(=O)C(C)(C(=O)NCc2ccccc2C)Oc2cccnc21 (centres undefined) |

| RP-LC retention time [s] | SMILES |
| --- | --- |
| 725 | CCOC(=O)C1CCN(C(c2ccc(C)cc2)c2c(O)cc(C)n(CC)c2=O)CC1 (centres undefined) |
| 806 | COc1ccccc1NC(=O)N1CCC2(CC1)NC(=O)c1cc(Cl)ccc1N2C |
| 899 | COc1ccc(NC(=O)Cn2cnc3c(sc4nc(-c5ccccc5)ccc43)c2=O)cc1OC |
| 1350 | Cc1ccc(-c2nc(N)n(C(=O)c3ccc(C(C)(C)C)cc3)n2)cc1C |
| 961 | CCOc1ccccc1NC(=O)c1cnc2c(c1)c(=O)n(C)c(=O)n2-c1ccccc1 |
| 727 | Cc1ccc(C2CC(=O)c3cnc(N4CCN(c5ccccn5)CC4)nc3C2)cc1 (centres undefined) |
| 867 | Cc1cccc(Nc2c(-c3ccc(N4CCOCC4)cc3)nc3cnccn23)c1C |
| 882 | O=C(Nc1ccc2c(c1)OCO2)Nc1ccc2c(c1)N(C(=O)c1ccccc1)CC2 |
| 574 | O=C(NC1CC1)c1nc(-c2ccncc2)cs1 |
| 674 | COc1cc(CNC(=O)C2CCN(Cc3cn(C)c4ccccc34)CC2)cc(OC)c1 |
| 1140 | C=CCn1c(SCC(=O)c2cc(C)n(CCOC)c2C)nc2sc(C)c(C)c2c1=O |
| 652 | Cc1scc2nc(C(=O)NC3CCCCC3)nc(N(C)C)c12 |
| 580 | COc1ccc(-c2nc(NCCN3CCC(C)CC3)c3ccccc3n2)cc1 |
| 621 | CCCNC(=O)C1CCN(c2ccc(SCC(=O)Nc3ccccc3OCC)nn2)CC1 |
| 997 | CCCS(=O)(=O)N1CC(=O)N(c2ccccc2F)C(C)(C(=O)NC2CCCCCCC2)C1 (centres undefined) |
| 896 | CCc1ccc(C(C)NC(=O)c2ccnc3c(NC(C)=O)cccc23)cc1 (centres undefined) |
| 716 | CNC(=O)Cc1csc(-c2ccc(F)cc2)n1 |
| 711 | COc1ccc(CC(=O)N2CCC3(CC2)NC(=O)c2ccccc2N3C)cc1OC |
| 704 | CCNC(=O)c1sc2nc(-c3ccc(OC)cc3)c(NCCOC)n2c1C |
| 665 | COc1cccc(CNC(=O)C2CCc3nc(N4CCCCC4)ncc3C2)c1 (centres undefined) |
| 757 | Cc1nc(CC(=O)NCc2ccc(F)cc2F)sc1C(=O)NCC(C)C |
| 866 | Cc1cccc(C)c1Nc1c(-c2c(F)cccc2Cl)nc2cnccn12 |

| RP-LC retention time [s] | SMILES |
| --- | --- |
| 953 | Cn1c(=O)c(N2CCC(NC(=O)Nc3ccccc3C(F)(F)F)CC2)nc2ccccc21 |
| 818 | CNCC[C@H](Oc1ccc(C(F)(F)F)cc1)c1ccccc1 |
| 579 | OC1(c2ccccn2)CCOC2(CCN(Cc3ccc(Cl)cc3F)CC2)C1 (centres undefined) |
| 1170 | Cc1cc(C)c(C)c(S(=O)(=O)N2CC(=O)N(CC3CC3)CC23CCCC3)c1C |
| 576 | COc1ccc2c(c1)CC(C(=O)NCCCN1CCN(C3CCCCC3)CC1)CO2 (centres undefined) |
| 710 | CC(=O)N1CCc2cc(N3CC(C(=O)Nc4ccccc4C(F)(F)F)CC3=O)ccc21 (centres undefined) |
| 938 | CCOc1cccc(-c2noc(-c3nn(-c4ccc(OC)cc4)ccc3=O)n2)c1 |
| 683 | Cc1noc(-c2ccnc(-n3cnc(C(=O)NCCc4ccc(Cl)cc4)c3)c2)n1 |
| 747 | O=C(c1cccs1)N1CCC2(CC1)N=C(c1ccccc1)NO2 |
| 826 | Cc1ccc(C2Cn3cnc(C(=O)N4CCC(C(=O)NCCc5ccccc5)CC4)c3CO2)cc1 (centres undefined) |
| 702 | CCNc1nc(C)cc(N2CCN(C(=O)Nc3ccc(CC)cc3)CC2)n1 |
| 1000 | CCn1c(=O)c(N2CCCC(C(=O)N3CCCCCC3)C2)nc2cccnc21 (centres undefined) |
| 985 | O=c1c2sccc2n(Cc2nc(-c3ccccc3)no2)c(=O)n1Cc1ccccc1 |
| 946 | O=C(c1cccc(F)c1)N1CCCC1c1nc(-c2ccccc2)no1 (centres undefined) |
| 815 | COc1ccc(-c2nnc(N3CCC(C(=O)NC(C)c4ccc(OC)cc4)CC3)o2)cc1 (centres undefined) |
| 735 | CCn1c(=O)sc2cc(S(=O)(=O)N3CCC(C(=O)Nc4ccc(C)cn4)CC3)ccc21 |
| 656 | CCCNC(=O)N1CCN(Cc2nc3cccnc3n2-c2cc(C)cc(C)c2)CC1 |
| 840 | CCOC(=O)C1=C(c2ccc(OC)cc2)NC(=O)NC1c1ccc(OC)cc1 (centres undefined) |
| 829 | Cc1cc(C)cc(C(=O)N2CCC(c3noc(N)c3C(C)C)CC2)c1 |
| 676 | O=C(Nc1cccc(F)c1)N1CCCC(Cn2c(C3CC3)nc3cccnc32)C1 (centres undefined) |
| 1080 | CCc1ccc(S(=O)(=O)c2cnc(N3CCN(c4ccccc4OC)CC3)nc2N)cc1 |
| 1020 | CN(C(=O)Cn1cnc2c(-c3ccc(Cl)cc3)csc2c1=O)c1ccccc1 |

| RP-LC retention time [s] | SMILES |
| --- | --- |
| 730 | CCn1ccc(NC(=O)NC2CCCC2)n1 |
| 876 | Cn1cc(C(=O)NCc2ccc(F)c(Cl)c2)c(S(=O)(=O)N2CCCCC2)n1 |
| 797 | COCCn1nnnc1C1CC2(CCOCC2)C(=O)N1Cc1ccc(C(F)(F)F)cc1 (centres undefined) |
| 808 | Cc1cc(C(F)F)n2nc(C(=O)N3CCCC3c3ccc(F)cc3)nc2n1 (centres undefined) |
| 932 | CC1(C(=O)NC2CCCCC2)CN(S(=O)(=O)c2ccccc2)CC(=O)N1c1ccccc1F (centres undefined) |
| 786 | CCOCCCNC(=O)C1CCN(C2=NS(=O)(=O)C(c3ccc(C)c(C)c3)=C2C)CC1 |
| 1260 | CCc1ccc(NS(=O)(=O)c2cc(-c3nc(C(C)C)cs3)cs2)cc1 |
| 1240 | CCCN(C(C)=O)c1nc(-c2ccc(Br)cc2)cs1 |
| 1050 | Cc1ccc(NC(=O)Cn2cccc2-c2nnc(C3CCC3)o2)c(Cl)c1 |
| 868 | Cc1c(C(=O)NC(C)C)cnn1-c1cc(-c2nc(C(C)C)no2)ccn1 |
| 835 | Cc1ccccc1NC(=O)C1CCCN(c2ccc3cc(S(=O)(=O)N4CCCCC4)ccc3n2)C1 (centres undefined) |
| 780 | CC(C)NC(=O)C1CN(S(=O)(=O)c2ccccc2)c2cc(C(C)(C)C)ccc2O1 (centres undefined) |
| 963 | COc1ccc(-c2nnc(-c3cccc(S(=O)(=O)N4CCCC4)c3)o2)cc1 |
| 784 | Clc1cc(Cl)cc(-c2ccc(CNCc3ccco3)o2)c1 |
| 1230 | O=C(Nc1ccc(Br)cc1)C1CCCN(c2ncc(-c3cccc(F)c3)cn2)C1 (centres undefined) |
| 667 | COc1ccc(CNC(=O)N2CCN(Cc3nc4cc(Cl)ccc4o3)CC2)cc1 |
| 741 | Cc1ccccc1OCC(=O)NCC1CC(=O)N(c2ccccc2)C1 (centres undefined) |
| 849 | O=C(CCCc1ccccc1)Nc1cnn(-c2ncc(N3CCCC3)cn2)c1 |
| 898 | CC1CCc2c(sc3nc(CCC(=O)NCCc4c[nH]c5ccccc45)[nH]c(=O)c23)C1 (centres undefined) |
| 668 | CN1C(=O)CCc2cc(NC(=O)C3CCC3)ccc21 |
| 788 | CCOCCCNC(=O)C1CCCN(S(=O)(=O)c2ccc3c(ccn3C)c2)C1 (centres undefined) |
| 714 | Cc1cccc(-c2nc3ccccn3c2NC(=O)NCc2ccc(F)cc2)c1 |

| SMILES | RP-LC retention time [s] |
| --- | --- |
| CCn1cc(C(=O)Nc2ccc(F)c(Cl)c2)c2cccnc21 | 965 |
